Here are results for three molecules from patent US10870647B2, “Imidazopyridine derivative, method for preparing same, and pharmaceutical composition containing same as active ingredient for preventing or treating cancer” (DAEGU-GYEONGBUK MEDICAL INNOVATION FOUNDATION, priority 2016, dated 2020).

Structures are written as SMILES.

Holding throughout (assay): Kinase selectivity, scanMAX Kinase assay panel (DiscoverX), % control at 1 uM
Format in all cases: binding

In assay [1] the target is T1, scanMAX Kinase assay panel (Homo sapiens, UniProt O75116).
T1 construct: purchased DiscoverX
T1 sequence (O75116 whole entry): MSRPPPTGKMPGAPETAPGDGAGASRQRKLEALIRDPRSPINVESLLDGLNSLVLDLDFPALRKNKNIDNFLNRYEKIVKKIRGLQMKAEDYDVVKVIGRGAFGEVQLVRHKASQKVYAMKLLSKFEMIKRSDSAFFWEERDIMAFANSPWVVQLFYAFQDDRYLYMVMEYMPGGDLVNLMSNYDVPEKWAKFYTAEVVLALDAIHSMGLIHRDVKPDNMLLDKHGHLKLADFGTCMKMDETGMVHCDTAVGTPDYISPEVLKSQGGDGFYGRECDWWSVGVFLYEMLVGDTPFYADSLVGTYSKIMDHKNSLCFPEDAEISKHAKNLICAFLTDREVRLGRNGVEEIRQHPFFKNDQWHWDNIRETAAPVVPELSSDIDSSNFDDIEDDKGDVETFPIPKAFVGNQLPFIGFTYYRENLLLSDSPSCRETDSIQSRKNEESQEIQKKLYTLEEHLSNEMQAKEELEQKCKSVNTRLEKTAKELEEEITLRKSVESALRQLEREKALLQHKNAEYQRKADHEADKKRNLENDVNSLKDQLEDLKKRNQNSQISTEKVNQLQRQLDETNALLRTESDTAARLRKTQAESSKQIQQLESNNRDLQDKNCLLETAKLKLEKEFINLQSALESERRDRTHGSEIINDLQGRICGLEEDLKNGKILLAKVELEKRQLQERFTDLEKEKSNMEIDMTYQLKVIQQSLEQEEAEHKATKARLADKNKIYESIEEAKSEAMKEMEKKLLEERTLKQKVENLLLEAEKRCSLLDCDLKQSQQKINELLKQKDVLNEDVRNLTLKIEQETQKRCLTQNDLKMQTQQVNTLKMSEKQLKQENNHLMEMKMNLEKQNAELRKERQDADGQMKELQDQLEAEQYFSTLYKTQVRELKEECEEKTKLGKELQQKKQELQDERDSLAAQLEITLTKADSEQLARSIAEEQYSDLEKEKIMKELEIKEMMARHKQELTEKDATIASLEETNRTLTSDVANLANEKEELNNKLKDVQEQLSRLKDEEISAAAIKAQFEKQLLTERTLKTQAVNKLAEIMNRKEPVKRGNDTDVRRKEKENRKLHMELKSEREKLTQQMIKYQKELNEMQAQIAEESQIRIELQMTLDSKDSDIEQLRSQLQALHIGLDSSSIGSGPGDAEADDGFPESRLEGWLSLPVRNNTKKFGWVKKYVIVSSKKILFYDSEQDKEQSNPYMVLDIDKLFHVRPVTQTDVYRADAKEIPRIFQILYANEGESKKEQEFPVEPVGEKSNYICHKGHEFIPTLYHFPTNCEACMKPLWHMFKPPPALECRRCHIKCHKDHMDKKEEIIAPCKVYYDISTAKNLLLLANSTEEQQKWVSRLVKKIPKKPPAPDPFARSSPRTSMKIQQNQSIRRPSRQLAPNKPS
The conditions noted are these: ROCK2; 1 uM; read-out: Percent Control (%). The procedure: (§1) The following experiment was performed to evaluate the inhibitory activity of the compound of the present invention on more enzymes.
(§2) Particularly, among the compounds of the present invention, the compounds of Example 1, Example 12 and Example 78 were selected and assigned to DiscoverX to measure the kinase selectivity. The experiment was performed by using scanMAX™ Kinase assay panel.
(§3) At this time, the concentration of the drug to be treated to the enzyme was adjusted to 1 uM in DMSO, and the control percentage (% control) was determined according to the following Equation 1. [Example Compound−Positive Control/Negative Control−Positive Control]×100 [Equation 1]
(§4) The enzyme selectivity of the compound of the present invention was judged to be active for the enzyme if the % control was <35 (i.e. less than 35%) for each enzyme.

For assay [2], the target named is T2, scanMAX Kinase assay panel (Homo sapiens, UniProt O00141).
T2 construct: purchased DiscoverX
T2 sequence (O00141 1-431): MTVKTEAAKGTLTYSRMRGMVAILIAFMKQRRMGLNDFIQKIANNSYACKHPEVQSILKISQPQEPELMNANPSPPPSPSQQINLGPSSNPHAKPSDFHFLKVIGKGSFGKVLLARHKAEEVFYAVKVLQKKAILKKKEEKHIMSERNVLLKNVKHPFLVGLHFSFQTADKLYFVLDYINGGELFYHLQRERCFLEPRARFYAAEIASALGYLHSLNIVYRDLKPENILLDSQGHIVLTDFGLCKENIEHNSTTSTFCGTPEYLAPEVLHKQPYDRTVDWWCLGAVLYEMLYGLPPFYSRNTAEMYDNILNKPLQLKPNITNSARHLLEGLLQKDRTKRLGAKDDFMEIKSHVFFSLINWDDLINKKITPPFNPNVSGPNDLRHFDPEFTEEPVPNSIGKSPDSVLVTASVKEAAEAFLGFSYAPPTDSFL
Conditions: SGK; 1 uM; read-out: Percent Control (%). The procedure: as §1, §2, §3, §4

Assay [3] deals with T3, scanMAX Kinase assay panel (Homo sapiens, UniProt O95382).
T3 construct: purchased DiscoverX
T3 sequence (O95382 1-1288): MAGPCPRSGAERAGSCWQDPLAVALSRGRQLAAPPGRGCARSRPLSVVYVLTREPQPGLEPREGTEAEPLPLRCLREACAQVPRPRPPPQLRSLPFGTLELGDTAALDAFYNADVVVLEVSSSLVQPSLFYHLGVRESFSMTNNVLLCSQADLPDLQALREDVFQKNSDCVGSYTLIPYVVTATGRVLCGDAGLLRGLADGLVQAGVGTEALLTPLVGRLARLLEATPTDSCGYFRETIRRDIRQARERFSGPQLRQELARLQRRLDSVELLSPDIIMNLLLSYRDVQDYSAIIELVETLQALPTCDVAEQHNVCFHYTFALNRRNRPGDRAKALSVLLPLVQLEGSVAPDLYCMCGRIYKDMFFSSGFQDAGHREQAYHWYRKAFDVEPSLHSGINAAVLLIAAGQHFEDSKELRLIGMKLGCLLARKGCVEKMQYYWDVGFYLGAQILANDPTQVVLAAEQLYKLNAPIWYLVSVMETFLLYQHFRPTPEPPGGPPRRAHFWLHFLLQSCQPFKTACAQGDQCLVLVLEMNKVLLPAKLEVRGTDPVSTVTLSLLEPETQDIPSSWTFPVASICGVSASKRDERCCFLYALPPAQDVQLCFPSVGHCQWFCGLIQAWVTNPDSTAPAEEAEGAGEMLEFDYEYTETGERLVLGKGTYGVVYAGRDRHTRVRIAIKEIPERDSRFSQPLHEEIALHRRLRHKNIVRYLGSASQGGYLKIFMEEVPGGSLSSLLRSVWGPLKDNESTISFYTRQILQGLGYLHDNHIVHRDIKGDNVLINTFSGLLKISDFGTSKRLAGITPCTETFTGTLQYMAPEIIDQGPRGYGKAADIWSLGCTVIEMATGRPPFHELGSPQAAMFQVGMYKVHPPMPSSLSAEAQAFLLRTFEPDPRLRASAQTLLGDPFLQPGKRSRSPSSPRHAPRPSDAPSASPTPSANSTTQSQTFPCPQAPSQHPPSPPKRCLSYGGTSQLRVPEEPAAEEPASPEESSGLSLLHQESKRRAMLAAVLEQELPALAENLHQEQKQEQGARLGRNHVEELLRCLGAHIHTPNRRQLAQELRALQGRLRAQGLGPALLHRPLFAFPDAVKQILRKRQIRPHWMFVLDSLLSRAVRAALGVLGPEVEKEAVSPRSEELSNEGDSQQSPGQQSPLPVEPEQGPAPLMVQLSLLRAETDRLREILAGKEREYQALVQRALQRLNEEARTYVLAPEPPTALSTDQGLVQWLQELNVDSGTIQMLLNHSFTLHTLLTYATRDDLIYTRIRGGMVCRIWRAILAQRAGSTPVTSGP
Conditions: ASK2; 1 uM; read-out: Percent Control (%). The procedure: as §1, §2, §3, §4

Assay [4] has as its target T4, scanMAX Kinase assay panel (Homo sapiens, UniProt P10721, T670I/V559D).
T4 construct: purchased DiscoverX
The conditions noted are these: KIT (V559D, T670I); 1 uM; read-out: Percent Control (%). The procedure:
as §1, §2, §3, §4

The target of assay [5] is T5, scanMAX Kinase assay panel (Homo sapiens, UniProt P57058).
T5 construct: purchased DiscoverX
T5 sequence (P57058 1-714): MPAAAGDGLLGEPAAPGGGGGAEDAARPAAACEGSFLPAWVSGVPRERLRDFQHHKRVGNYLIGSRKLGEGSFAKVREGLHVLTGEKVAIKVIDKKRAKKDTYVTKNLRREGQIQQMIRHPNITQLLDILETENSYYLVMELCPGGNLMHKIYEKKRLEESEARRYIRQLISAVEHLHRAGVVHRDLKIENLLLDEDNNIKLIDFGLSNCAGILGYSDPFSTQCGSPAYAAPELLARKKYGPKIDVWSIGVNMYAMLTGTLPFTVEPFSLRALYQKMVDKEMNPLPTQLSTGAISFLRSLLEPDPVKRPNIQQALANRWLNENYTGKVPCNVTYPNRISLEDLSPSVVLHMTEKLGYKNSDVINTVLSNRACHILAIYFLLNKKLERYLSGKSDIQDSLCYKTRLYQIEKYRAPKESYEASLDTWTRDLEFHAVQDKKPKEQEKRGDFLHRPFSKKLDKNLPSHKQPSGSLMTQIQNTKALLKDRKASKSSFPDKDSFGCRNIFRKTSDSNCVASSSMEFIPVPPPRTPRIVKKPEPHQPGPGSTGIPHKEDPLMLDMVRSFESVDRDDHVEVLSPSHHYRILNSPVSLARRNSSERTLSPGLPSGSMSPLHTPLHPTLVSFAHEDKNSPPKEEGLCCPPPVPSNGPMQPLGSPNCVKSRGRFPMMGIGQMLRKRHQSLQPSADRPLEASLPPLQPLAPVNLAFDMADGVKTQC
Conditions: HUNK; 1 uM; read-out: Percent Control (%). The procedure:
as §1, §2, §3, §4

T4 sequence (P10721 26-976 V559D/T670I): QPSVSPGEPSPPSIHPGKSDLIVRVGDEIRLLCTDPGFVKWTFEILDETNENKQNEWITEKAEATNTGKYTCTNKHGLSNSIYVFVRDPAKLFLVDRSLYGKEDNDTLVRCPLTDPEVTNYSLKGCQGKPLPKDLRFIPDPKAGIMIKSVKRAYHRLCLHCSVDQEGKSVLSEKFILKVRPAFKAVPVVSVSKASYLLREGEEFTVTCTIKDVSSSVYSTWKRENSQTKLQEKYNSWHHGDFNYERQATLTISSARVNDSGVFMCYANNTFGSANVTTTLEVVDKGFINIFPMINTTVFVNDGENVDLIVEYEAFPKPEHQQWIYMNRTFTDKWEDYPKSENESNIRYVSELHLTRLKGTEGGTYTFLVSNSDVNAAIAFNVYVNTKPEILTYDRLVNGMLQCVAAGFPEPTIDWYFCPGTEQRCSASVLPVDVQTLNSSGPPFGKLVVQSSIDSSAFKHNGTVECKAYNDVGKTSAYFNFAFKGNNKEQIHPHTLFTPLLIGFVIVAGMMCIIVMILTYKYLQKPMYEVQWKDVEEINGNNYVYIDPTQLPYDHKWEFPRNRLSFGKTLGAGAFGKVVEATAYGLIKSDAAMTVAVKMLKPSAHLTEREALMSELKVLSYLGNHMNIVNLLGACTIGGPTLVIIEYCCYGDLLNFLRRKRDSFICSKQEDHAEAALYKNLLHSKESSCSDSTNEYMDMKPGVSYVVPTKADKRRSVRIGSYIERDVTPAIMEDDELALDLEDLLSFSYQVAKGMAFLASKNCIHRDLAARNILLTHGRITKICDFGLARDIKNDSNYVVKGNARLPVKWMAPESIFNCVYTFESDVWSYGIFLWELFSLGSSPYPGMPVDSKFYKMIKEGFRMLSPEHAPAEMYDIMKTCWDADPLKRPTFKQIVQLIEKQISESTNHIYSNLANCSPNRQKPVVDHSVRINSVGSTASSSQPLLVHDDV

As to `Cc1ccc(C(=O)Nc2ccc(CN3CCN(C)CC3)c(C(F)(F)F)c2)cc1C#Cc1cnc2c(Nc3cnn(C)c3)cccn12` [Example 1, 4-methyl-3-((8-((1-methyl-1H-pyrazol-4-yl)amino)imidazo[1,2-a]pyridin-3-yl)ethynyl)-N-(4-((4-methylpiperazin-1-yl)methyl)-3-(trifluoromethyl)phenyl)benzamide], the remaining binding at 1 µM in assay [1] was determined as 15%; in assay [2], 93%; in assay [3] it was 71%; in assay [4], 0%; in assay [5], 74%.

Consider `Cc1cn(-c2cc(NC(=O)c3ccc(C)c(C#Cc4cnc5c(Nc6cnn(C)c6)cccn45)c3)cc(C(F)(F)F)c2)cn1` [Example 12, 4-methyl-N-(3-(4-methyl-1H-imidazol-1-yl)-5-(trifluoromethyl)phenyl)-3-((8-((1-methyl-1H-pyrazol-4-yl)amino)imidazo[1,2-a]pyridin-3-yl)ethynyl)benzamide], for which the remaining binding at 1 µM is 100% in assay [1]; 100% in assay [2]; 81% in assay [3]; 3% in assay [4]; 79% in assay [5].

Take `Cc1ccc(NC(=O)C2(C(=O)Nc3ccc(F)cc3)CC2)cc1C#Cc1cnc2c(Nc3cnn(C(C)C)c3)cccn12` [Example 78]: the remaining binding at 1 µM worked out at 100% in assay [1]; 96% in assay [2]; 100% in assay [3]; 63% in assay [4]; 93% in assay [5].
